What was measured:
[1] = test system: adult human subjects with type 2 diabetes that were at high risk for cardiovascular events; assay: CV risk score model and subgroup analysis of MACE based on the DEVOTE trial; type: in vivo; set-up: key to Estimate (risk of MACE with IDeg compared to IGlar): hazard ratio of MACE, IDeg vs IGlar; settings: for Estimated hazard ratio (HR) for MACE by CV risk score: IDeg/IGlar
Source text: Based on the DEVOTE trial, a cardiovascular (CV) risk score has been developed for individuals with established cardiovascular risk. This risk score was developed using available medical history, baseline information and cardiovascular events occurring during the trial. […] The variables are listed in descending order according to their impact on the overall risk of major adverse cardiovascular events (MACE), here consisting of cardiovascular death, non-fatal myocardial infarction, or non-fatal stroke. The combination of these variables yields an algorithm that can be used to determine the risk of future MACEs and to determine the benefit of being treated with IDeg compared to IGlar.
The CV risk score and estimated MACE hazard ratio for CV risk scores by quartiles based on number of events are presented in FIG. 1. […] This benefit is seen regardless of which of the individual predictors contribute to the high score.
For example, subjects with a BMI ≥30 kg/m^2 and diastolic blood pressure ≥80 mmHg, and subjects with a diastolic blood pressure ≥80 mmHg who were treated with statins would have a benefit with IDeg compared to IGlar in terms of risk of MACE (Table 11).

[2] = test system: adult human subjects with type 2 diabetes that were at high risk for cardiovascular events; assay: Cardiovascular outcomes trial (DEVOTE): insulin degludec vs insulin glargine, time to first MACE; type: in vivo; settings: for Hazard Ratio (95% CI), time to first MACE: insulin degludec vs insulin glargine
Source text: This trial concerned incidence of cardiovascular events in adult human subjects with type 2 diabetes that were at high risk for cardiovascular events, including such subjects with existing cardiovascular disease. The primary objective of this trial was to confirm the cardiovascular safety of insulin degludec (Tresiba®) compared to that of insulin glargine (Lantus®). The secondary objective was to assess efficacy of insulin degludec on markers of glycaemic control and to assess safety on other parameters in subjects with type 2 diabetes that were at high risk for cardiovascular events.
An 18-month recruitment period was planned. […] Subjects were randomised 1:1 in a double-blinded manner to receive blinded insulin degludec or blinded insulin glargine, each added to standard of care. Subjects continued their current antidiabetic therapy except for the basal insulin component (if any), which was replaced by the investigational product. Treatment with bolus insulin was allowed.
Subjects not currently on insulin were to initiate basal insulin at a dose of 10 units OD given between dinner and bedtime. Subjects receiving basal insulin OD were to transfer unit-to-unit from their previous basal insulin dose. Subjects receiving twice-daily (or more) basal insulin transferred to an OD regimen and the pre-trial total basal insulin dose was reduced by 20-30% in accordance with the label for insulin glargine. For subjects receiving premixed/biphasic insulin OD, the basal component was calculated and transferred unit-to-unit to investigational product OD. The bolus insulin component was calculated and transferred unit-to-unit to bolus insulin and given at the most appropriate meal at the investigator's discretion. For subjects receiving premixed/biphasic insulin twice daily (or more), the total basal component was calculated, reduced by 20-30% and transferred to investigational product OD; the bolus component was to be calculated and transferred to insulin aspart and dosed with the most appropriate meals at the investigator's discretion. Subjects treated with bolus insulin as part of their current insulin regimen could be transferred to insulin aspart unit-to-unit from their previous bolus insulin dose, at the investigator's discretion.
Subjects adjusted their basal insulin dose weekly, aiming for a pre-breakfast (fasting) SMPG value of 71-90 mg/dL (4.0-5.0 mmol/L) by using the algorithm in Table 6. The basal dose was adjusted based on the lowest of three pre-breakfast SMPG values, preferably measured two days prior to dose adjustment and on the day of the dose adjustment. No maximum dose was specified. The investigators were to guide the subjects in adjusting their insulin at clinic visits and phone contacts. Investigators and subjects were recommended to follow the basal insulin titration algorithm. Importantly, however, the decision of adjustment of insulin doses was to be based on all available information, such as symptoms of hypoglycaemia and hyperglycaemia, previous responses to dose adjustments and SMPG values other than those required as per protocol.
Intensification with bolus insulin and other antidiabetic treatments was allowed during the course of the trial. The starting dose of bolus insulin was 4 units per relevant meal. […] Titration of bolus insulin could also be done based on carbohydrate counting. This was to be done at the investigator's discretion.
Subjects received insulin degludec or insulin glargine by subcutaneous administrations once daily in addition to the subject's standard treatment. Basal insulin was injected in the thigh, the upper arm (deltoid area) or the abdominal wall. The formulations were administered in the form of an aqueous solution comprising insulin degludec or insulin glargine, using identical 100 units/mL, 10-mL vials and 1-mL syringes.
The results of this trial may be presented herein as a number or fraction of subjects experiencing an event.

[3] = test system: human subjects with type 2 diabetes inadequately controlled with basal insulin and metformin; settings: in vivo
Method: (§1) A 26-week randomised, parallel two-arm, double-blind, multi-centre, multinational, treat-to-target trial in 413 human subjects with type 2 diabetes inadequately controlled with basal insulin and metformin with or without SU or glinides was carried out comparing the efficacy and safety of insulin degludec+liraglutide (Xultophy®, IDegLira) once daily with insulin degludec (Tresiba®, IDeg) once daily both added on to metformin. […] The secondary objective was to compare the overall efficacy and safety parameters of IDegLira and IDeg after 26 weeks of treatment. All trial endpoints were collected and assessed throughout the entire duration of the trial.
(§2) Eligible subjects were randomised 1:1 to either once daily IDegLira or once daily IDeg, both in combination with metformin. […] For each subject, the duration of the trial was to be approximately 29 weeks: up to 2 weeks between screening and first treatment, 26 weeks of treatment and at least 1 week of wash-out at the end of the trial.
(§3) The IDegLira dosing unit is defined as a dose step. One (1) IDegLira dose step consists of 1 unit insulin degludec and 0.036 mg liraglutide. Treatment with IDegLira was initiated at 16 dose steps containing 16 units insulin degludec and 0.6 mg liraglutide. Adjustment of the IDegLira dose was performed twice weekly based on the mean of 3 preceding daily fasting SMPG values on 3 consecutive days. Adjustments occurred in 2 dose steps aiming at a fasting glycaemic target of 4.0-5.0 mmol/L (72-90 mg/dL). The maximum allowed dose was 50 dose steps (50 units IDeg/1.8 mg liraglutide). IDeg treatment was initiated with 16 units, and titrated twice weekly to the fasting glycaemic target of 4.0-5.0 mmol/L (72-90 mg/dL) based on the mean fasting SMPG from 3 proceeding measurements as described for IDegLira. The maximum allowed dose was 50 units.
(§4) Subjects received IDegLira or IDeg by subcutaneous administration in addition to metformin. IDegLira or IDeg was injected subcutaneously in the thigh, upper arm (deltoid region) or abdomen once daily preferably at the same time every day. The injection area chosen were to remain unchanged throughout the trial, but rotation within the area was recommended.

[4] = test system: human subjects with type 2 diabetes inadequately controlled with basal insulin and metformin; assay: Example 2: 26-week double-blind trial, IDegLira vs IDeg, both added on to metformin; settings: 26 weeks of treatment
Method: as §1, §2, §3, §4

[5] = test system: human subjects with T2DM inadequately controlled on insulin glargine in combination with metformin; assay: Example 3: 26-week open-label trial, IDegLira vs IGlar, both in combination with metformin; type: in vivo; settings: 26 weeks of treatment
Method: A 26-week multinational, multi-centre, open-label, two-arm parallel, randomised, treat-to-target trial in 557 human subjects with T2DM inadequately controlled on insulin glargine (IGlar, Lantus®) at a daily dose between 20-50 units (both inclusive) in combination with metformin was carried out. The primary objective was to confirm the efficacy of IDegLira in controlling glycaemia in human subjects with T2DM on previous treatment with IGlar. The secondary objective was to compare safety of IDegLira to IGlar after 26 weeks of treatment and to confirm superiority of IDegLira versus IGlar after 26 weeks of treatment on one or more of the following: change from baseline in HbA1c, confirmed hypoglycaemia, change from baseline in body weight.
IGlar was given at a start dose equal to the pre-trial daily dose of IGlar (dose-to-dose switch) and was titrated according to a predefined titration algorithm with no maximum dose.
The trial included a screening visit to assess subjects' eligibility and weekly visits/phone contacts during the 26-week treatment period.
Subjects randomised to treatment with IDegLira discontinued the pre-trial IGlar treatment prior to initiating IDegLira treatment with a start dose of 16 dose steps, equivalent to 16 units insulin degludec and 0.6 mg liraglutide. […] Subjects randomised for treatment with IGlar […] on the pre-trial, stable IGlar treatment prior to initiating IGlar treatment with a start dose of IGlar equal to the pretrial daily dose (dose-to-dose switch). No predefined maximum dose was specified for IGlar treatment.
Subjects received IDegLira or IGlar by subcutaneous administration once daily in addition to metformin. […] IGlar was to be injected according to the approved label and using the pre-trial dosing time and injection site throughout the trial.

N^εB29—(N^α—(HOOC(CH2)14CO)-γ-Glu) desB30 human insulin [IDeg]
Estimated hazard ratio (HR) for MACE by CV risk score ([1]; CV risk score quartile High): 1.04
Estimated hazard ratio (HR) for MACE by CV risk score ([1]; CV risk score quartile Low): 1.02
Estimated hazard ratio (HR) for MACE by CV risk score ([1]; CV risk score quartile Moderate): 0.89
Estimated hazard ratio (HR) for MACE by CV risk score ([1]; CV risk score quartile Very High): 0.67
hazard ratio IDeg/IGlar, risk of MACE ([1]; patients who have a high CV risk score): < 1
Estimate (risk of MACE with IDeg compared to IGlar) ([1]; subgroup Age 65-75 years AND systolic blood pressure <140 mmHg): 0.70
Estimate (risk of MACE with IDeg compared to IGlar) ([1]; subgroup Age <65 years AND diastolic blood pressure ≥80 mmHg): 0.64
Estimate (risk of MACE with IDeg compared to IGlar) ([1]; subgroup Age <65 years AND treated with statins): 0.75
Estimate (risk of MACE with IDeg compared to IGlar) ([1]; subgroup BMI ≥30 kg/m^2 AND diastolic blood pressure ≥80 mmHg): 0.68
Estimate (risk of MACE with IDeg compared to IGlar) ([1]; subgroup Diastolic blood pressure <90 mmHg AND HDL ≥1.0 mmol/L): 0.80
Estimate (risk of MACE with IDeg compared to IGlar) ([1]; subgroup Diastolic blood pressure ≥80 mmHg AND treated with statins): 0.73
Estimate (risk of MACE with IDeg compared to IGlar) ([1]; subgroup Diastolic blood pressure ≥80 mmHg AND triglycerides >1.7 mmol/L): 0.69
Estimate (risk of MACE with IDeg compared to IGlar) ([1]; subgroup Established CV risk AND HDL ≥1.0 mmol/L): 0.78
Estimate (risk of MACE with IDeg compared to IGlar) ([1]; subgroup Established CV risk AND diastolic blood pressure ≥80 mmHg): 0.76
Estimate (risk of MACE with IDeg compared to IGlar) ([1]; subgroup Established CV risk AND pulse ≥70 bpm): 0.80
Estimate (risk of MACE with IDeg compared to IGlar) ([1]; subgroup Height <170 cm AND treated with statins): 0.75
Estimate (risk of MACE with IDeg compared to IGlar) ([1]; subgroup Non-White AND diastolic blood pressure <90 mmHg): 0.64
Estimate (risk of MACE with IDeg compared to IGlar) ([1]; subgroup Not Hispanic or Latino AND Non-White): 0.64
Estimate (risk of MACE with IDeg compared to IGlar) ([1]; subgroup Not Hispanic or Latino AND triglycerides >1.7 mmol/L): 0.79
Estimate (risk of MACE with IDeg compared to IGlar) ([1]; subgroup Previous smoker AND age <65 years): 0.73
Estimate (risk of MACE with IDeg compared to IGlar) ([1]; subgroup Previous smoker AND cholesterol ≥3 mmol/L): 0.79
Estimate (risk of MACE with IDeg compared to IGlar) ([1]; subgroup Previous smoker AND diastolic blood pressure ≥80 mmHg): 0.66
Estimate (risk of MACE with IDeg compared to IGlar) ([1]; subgroup Previous smoker AND treated with statins): 0.79
Estimate (risk of MACE with IDeg compared to IGlar) ([1]; subgroup Previous smoker AND triglycerides >1.7 mmol/L): 0.73
Estimate (risk of MACE with IDeg compared to IGlar) ([1]; subgroup Pulse ≥70 bpm AND diastolic blood pressure ≥80 mmHg): 0.74
Estimate (risk of MACE with IDeg compared to IGlar) ([1]; subgroup Pulse ≥70 bpm AND triglycerides >1.7 mmol/L): 0.76
Estimate (risk of MACE with IDeg compared to IGlar) ([1]; subgroup Pulse ≥70 mmHg AND treated with statins): 0.72
Estimate (risk of MACE with IDeg compared to IGlar) ([1]; subgroup Systolic blood pressure <140 mmHg AND HDL ≥1.0 mmol/L): 0.73
Estimate (risk of MACE with IDeg compared to IGlar) ([1]; subgroup Triglycerides >1.7 mmol/L AND HDL ≥1.0 mmol/L): 0.69
Estimate (risk of MACE with IDeg compared to IGlar) ([1]; subgroup Triglycerides >1.7 mmol/L AND treated with statins): 0.78
n, number of subjects with a first MACE ([2]; all subjects): 325
proportion of subjects with a first MACE ([2]; all subjects): 8.5%
Hazard Ratio (95% CI), time to first MACE ([2]; all subjects, MACE = CV death, non-fatal MI, non-fatal stroke, Cox model): 0.91 (0.78;1.06)
n, number of subjects with a first MACE ([2]; subgroup Africa): 6
proportion of subjects with a first MACE ([2]; subgroup Africa): 4.6%
n, number of subjects with a first MACE ([2]; subgroup Asia): 13
proportion of subjects with a first MACE ([2]; subgroup Asia): 4.1%
n, number of subjects with a first MACE ([2]; subgroup Female): 99
proportion of subjects with a first MACE ([2]; subgroup Female): 7.0%
n, number of subjects with a first MACE ([2]; subgroup Male): 226
proportion of subjects with a first MACE ([2]; subgroup Male): 9.4%
Hazard Ratio (95% CI), time to first MACE ([2]; subgroup Region: Africa): 0.30 (0.12; 0.77)
Hazard Ratio (95% CI), time to first MACE ([2]; subgroup Region: Asia): 0.42 (0.22; 0.81)
Hazard Ratio (95% CI), time to first MACE ([2]; subgroup Sex: Female): 0.76 (0.59; 0.99)
Hazard Ratio (95% CI), time to first MACE ([2]; subgroup Sex: Male): 0.99 (0.83; 1.20)
Adverse event and tolerability profiles [3]: consistent with previous findings
ΔHeart rate (change from baseline) [3]: −0.6 bpm
ΔDiastolic blood pressure (change from baseline) [4]: −0.7 mmHG
ΔSystolic blood pressure (change from baseline) [4]: −1.7 mmHG

IGlar: Insulin glargine (Lantus®), commercially available basal insulin, active comparator
n, number of subjects with a first MACE ([2]; all subjects): 356
proportion of subjects with a first MACE ([2]; all subjects): 9.3%
n, number of subjects with a first MACE ([2]; subgroup Africa): 18
proportion of subjects with a first MACE ([2]; subgroup Africa): 14.4%
n, number of subjects with a first MACE ([2]; subgroup Asia): 31
proportion of subjects with a first MACE ([2]; subgroup Asia): 9.4%
n, number of subjects with a first MACE ([2]; subgroup Female): 131
proportion of subjects with a first MACE ([2]; subgroup Female): 9.1%
n, number of subjects with a first MACE ([2]; subgroup Male): 225
proportion of subjects with a first MACE ([2]; subgroup Male): 9.5%
Mean body weight increase [5]: 1.8 kg
proportion of subjects experiencing confirmed hypoglycaemic episodes during the trial [5]: 49.1%
ΔDiastolic blood pressure (change from baseline) [5]: −1.4 mmHG
ΔHeart rate (change from baseline) [5]: −0.2 bpm
ΔSystolic blood pressure (change from baseline) [5]: −0.2 mmHG
